Data: the NIST ThermoML archive (doi:10.1016/j.jct.2007.05.010)
Numbers after ± are expanded uncertainties.

What was measured:
[1] = 298.15 K, 101 kPa, Liquid; for speed of sound: Sing-around technique in a fixed-path interferometer
[2] = mn = molality of the nth substance listed, in mol/kg; conditions: 298.15 K, 101 kPa, Liquid; for speed of sound: Sing-around technique in a fixed-path interferometer

With `OCCO` [1,2-ethanediol] the mass density [1] was 1109.41 ± 0.69 kg/m3 and the speed of sound [1] was 1656.1 ± 1.7 m/s.

`OCCO` [1,2-ethanediol] + O gave a speed of sound ([2]; m2 = 0) of 1656.1 ± 1.7 m/s, a speed of sound ([2]; m2 = 0.1028) of 1656.9 ± 1.7 m/s and a speed of sound ([2]; m2 = 0.2175) of 1657.7 ± 1.7 m/s. It also gave a speed of sound ([2]; m2 = 0.3155) of 1658.6 ± 1.7 m/s, a speed of sound ([2]; m2 = 0.3759) of 1658.7 ± 1.7 m/s and a speed of sound ([2]; m2 = 0.7031) of 1660.5 ± 1.7 m/s. The speed of sound ([2]; m2 = 0.808) was 1661.4 ± 1.7 m/s, the speed of sound ([2]; m2 = 0.9282) was 1661.8 ± 1.7 m/s and the speed of sound ([2]; m2 = 1.035) was 1662.3 ± 1.7 m/s. The speed of sound ([2]; m2 = 1.132) was 1662.7 ± 1.7 m/s, the mass density ([2]; m2 = 0) was 1109.41 ± 0.69 kg/m3 and the mass density ([2]; m2 = 0.1028) was 1109.35 ± 0.69 kg/m3. It also gave a mass density ([2]; m2 = 0.2175) of 1109.25 ± 0.69 kg/m3, a mass density ([2]; m2 = 0.3155) of 1109.22 ± 0.69 kg/m3 and a mass density ([2]; m2 = 0.3759) of 1109.06 ± 0.69 kg/m3. For the same compound, the mass density ([2]; m2 = 0.7031) was 1108.82 ± 0.68 kg/m3, the mass density ([2]; m2 = 0.808) was 1108.62 ± 0.68 kg/m3 and the mass density ([2]; m2 = 0.9282) was 1108.2 ± 0.68 kg/m3. For the same compound, the mass density ([2]; m2 = 1.035) was 1108.14 ± 0.68 kg/m3 and the mass density ([2]; m2 = 1.132) was 1108.1 ± 0.68 kg/m3.

`CC(O)CO` (stereo not given) [1,2-propanediol] showed a mass density [1] of 1032.87 ± 0.23 kg/m3 and a speed of sound [1] of 1510.6 ± 1.4 m/s.

In the case of `CC(O)CO` (stereo not given) [1,2-propanediol] + O, the speed of sound ([2]; m2 = 0) is reported as 1510.6 ± 1.4 m/s, the speed of sound ([2]; m2 = 0.2187) is reported as 1512.9 ± 1.4 m/s and the speed of sound ([2]; m2 = 0.5592) is reported as 1516.4 ± 1.4 m/s. The speed of sound ([2]; m2 = 0.6141) was 1516.5 ± 1.4 m/s, the speed of sound ([2]; m2 = 0.7341) was 1517.5 ± 1.4 m/s and the speed of sound ([2]; m2 = 0.8421) was 1519.4 ± 1.4 m/s. For the same compound, the speed of sound ([2]; m2 = 0.9215) was 1519.9 ± 1.4 m/s, the speed of sound ([2]; m2 = 1.023) was 1521.5 ± 1.4 m/s and the mass density ([2]; m2 = 0) was 1032.87 ± 0.23 kg/m3. It also gave a mass density ([2]; m2 = 0.2187) of 1033.12 ± 0.23 kg/m3, a mass density ([2]; m2 = 0.5592) of 1033.53 ± 0.24 kg/m3 and a mass density ([2]; m2 = 0.6141) of 1033.58 ± 0.24 kg/m3. For the same compound, the mass density ([2]; m2 = 0.7341) was 1033.67 ± 0.24 kg/m3, the mass density ([2]; m2 = 0.8421) was 1033.73 ± 0.24 kg/m3 and the mass density ([2]; m2 = 0.9215) was 1033.86 ± 0.24 kg/m3. The mass density ([2]; m2 = 1.023) was 1033.94 ± 0.24 kg/m3.

`CC1COC(=O)O1` (stereo not given) [4-methyl-1,3-dioxolan-2-one] gave a mass density [1] of 1198.64 ± 0.94 kg/m3 and a speed of sound [1] of 1443.4 ± 1.6 m/s.

Work on `CC1COC(=O)O1` (stereo not given) [4-methyl-1,3-dioxolan-2-one] + O yielded a speed of sound ([2]; m2 = 0) of 1443.4 ± 1.6 m/s, a speed of sound ([2]; m2 = 0.2538) of 1444.9 ± 1.6 m/s and a speed of sound ([2]; m2 = 0.2969) of 1445.2 ± 1.6 m/s. It also gave a speed of sound ([2]; m2 = 0.3438) of 1445.4 ± 1.6 m/s, a speed of sound ([2]; m2 = 0.3895) of 1445.6 ± 1.6 m/s and a speed of sound ([2]; m2 = 0.4879) of 1446 ± 1.6 m/s. It also gave a speed of sound ([2]; m2 = 0.5765) of 1446.6 ± 1.6 m/s, a speed of sound ([2]; m2 = 0.6743) of 1447.2 ± 1.6 m/s and a speed of sound ([2]; m2 = 0.7678) of 1447.6 ± 1.6 m/s. It also gave a mass density ([2]; m2 = 0) of 1198.64 ± 0.94 kg/m3, a mass density ([2]; m2 = 0.2538) of 1197.46 ± 0.93 kg/m3 and a mass density ([2]; m2 = 0.2969) of 1197.24 ± 0.93 kg/m3. For the same compound, the mass density ([2]; m2 = 0.3438) was 1196.97 ± 0.93 kg/m3, the mass density ([2]; m2 = 0.3895) was 1196.74 ± 0.93 kg/m3 and the mass density ([2]; m2 = 0.4879) was 1196.22 ± 0.93 kg/m3. It also gave a mass density ([2]; m2 = 0.5765) of 1195.77 ± 0.93 kg/m3, a mass density ([2]; m2 = 0.6743) of 1195.27 ± 0.93 kg/m3 and a mass density ([2]; m2 = 0.7678) of 1194.8 ± 0.92 kg/m3.
